Assay results published in PMC5382161 (Frontiers in Microbiology, 2017).
≈ marks a conversion by molar mass, not a printed value. Like-named read-outs stand apart in the source and are kept apart here.

Key:
[1] = test system: Mycobacterium smegmatis mc^2 155; experiment: microbe, parasite or virus in culture; format: cell-based
[2] = test system: M. smegmatis mc^2 155; experiment: Bacterial cell length by bright field microscopy; format: cell-based, Mycobacterium smegmatis
[3] = biological target: T1, MtbFtsZ (Mycobacterium tuberculosis, UniProt P9WN95); format: biochemical
T1 construct: inferred from pET15 vector and Ni-NTA purification; made in house; host or cells: E. coli BL21 (DE3) Rosetta
T1 sequence (P9WN95 1-379): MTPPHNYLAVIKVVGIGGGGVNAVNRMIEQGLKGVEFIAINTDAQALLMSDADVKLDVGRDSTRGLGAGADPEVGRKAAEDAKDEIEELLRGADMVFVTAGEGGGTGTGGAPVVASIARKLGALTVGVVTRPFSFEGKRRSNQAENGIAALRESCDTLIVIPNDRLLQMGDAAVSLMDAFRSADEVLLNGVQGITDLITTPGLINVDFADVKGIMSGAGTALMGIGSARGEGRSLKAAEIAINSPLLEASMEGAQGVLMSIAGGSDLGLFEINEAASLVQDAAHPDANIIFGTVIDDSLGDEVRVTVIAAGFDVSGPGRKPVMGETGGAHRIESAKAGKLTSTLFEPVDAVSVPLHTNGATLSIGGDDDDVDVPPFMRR

[4] = test system: FtsZ localization in M. smegmatis mc^2 155; experiment: FtsZ localization by immunofluorescence microscopy; format: cell-based, Mycobacterium smegmatis; conditions: late logarithmic phase cells grown with compound for 4 h
Method: The effect of coumarins on the Z-ring formation of M. smegmatis was determined with immunofluoresence microscopy using anti-FtsZ antibodies (Dziedzic et al., [2010]). Late logarithmic phase cells were grown in the presence and absence of coumarins for 4 h. The cells were fixed with formaldehyde washed with phosphate buffer, and immuno-stained with polyclonal anti-FtsZ rabbit antibody (GeneTeX, USA) overnight at 4°C. Alexa fluor (488) goat anti-rabbit secondary antibody (Invitrogen, USA) was used for visualizing Z-rings. The nuclear material was visualized by using an anti-mountant containing DAPI. The cells were visualized in 63 X objective using a Carl-Zeiss fluorescence Microscope (Axio Imager 2 for Life Science Research, Germany). The images were visualized and processed using ZEN image processing software.

[5] = biological target: T2, MtbFtsZ wild type (Mycobacterium tuberculosis, UniProt P9WN95); format: biochemical
T2 construct: inferred from pET15 vector and Ni-NTA purification; made in house; host or cells: E. coli BL21 (DE3) Rosetta
T2 sequence (P9WN95 1-379): T1 sequence (P9WN95 1-379)

[6] = biological target: T2, MtbFtsZ wild type; format: biochemical; remark: listed apart in the source
[7] = test system: bacteria; design: method as in Jaiswal et al., 2007; Bhattacharya et al., 2013; conditions: ref Jaiswal et al., 2007; Bhattacharya et al., 2013; cited from earlier work
[8] = test system: Mycobacterium tuberculosis H37Rv; design: method as in Rezayan et al., 2012; Upadhyay et al., 2012; conditions: ref Rezayan et al., 2012, Upadhyay et al.; cited from earlier work
[9] = Mycolicibacterium smegmatis, MC^2155, 48 h, M. smegmatis mc^2 155, MABA, 37°C, 48 h, read-out: MIC
[10] = Mycolicibacterium smegmatis, MC^2155, 48 h
[11] = M. smegmatis mc^2 155, MABA, 37°C, 48 h

## O=c1cc(O)c2ccccc2o1 [4-Hydroxycoumarin]
[1]; [9]
  MIC: 150 ± 7.4 µM (≈ 24.4 µg/mL)

## Cc1cc(=O)oc2cc(O)ccc12 [4-Methylumbelliferone]
[1]; [9]
  MIC: 42.5 ± 2.4 µM (≈ 7.49 µg/mL)

## Cc1ccc2oc(=O)ccc2c1 [6-Methylcoumarin]
[1]; [9]
  MIC: 46.8 ± 4.3 µM (≈ 7.5 µg/mL)

## CCN(CC)c1ccc2c(C)cc(=O)oc2c1 [7-Diethylamino-4-methylcoumarin]
[1]; [10]
  MIC: 70.2 ± 6.2 µM (≈ 16.2 µg/mL)

## Cc1cc(=O)oc2cc(N(C)C)ccc12 [7-Dimethyl-4-methylcoumarin]
[1]; [11]
  MIC: 36.8 ± 7.1 µM (≈ 7.48 µg/mL)
[1]; M. smegmatis mc^2 155, MABA, 37°C, 48 h, listed as 7-Dimethyl-4-methyl coumarin, read-out: MIC
  MIC: 36.8 µM (≈ 7.48 µg/mL)
[1]; [9]
  MIC: 38.7 µM (≈ 7.87 µg/mL)
[2]; cells treated with 50 μM, versus untreated cells
  increase of bacterial length: 4 fold
[2]; cells treated with 50 μM, untreated 4.48 ± 1.25 μm
  maximum bacterial length: 15.2 ± 3.5 μm
[3]
  protofilament formation (TEM): did not allow the formation of network for a protofilament
[4]
  FtsZ localization (immunofluorescence): localization of MtbFtsZ was disrupted

## COc1ccc2cc3[n+](cc2c1OC)CCc1cc2c(cc1-3)OCO2 [Berberine]
[5]
  inhibition of the GTPase activity of the protein: 75% ± 2.5
[6]
  inhibition of the polymerization activity of the protein: 82% ± 1.4

## O=c1ccc2ccccc2o1 [Coumarin]
[1]; [9]
  MIC: 214 ± 8.7 µM (≈ 31.2 µg/mL)

## O=c1ccc2ccc(O)c(O)c2o1 [Daphnetin]
[1]; [10]
  MIC: 48.2 ± 6.3 µM (≈ 8.59 µg/mL)

## O=c1oc2c(O)c(O)cc3c(=O)oc4c(O)c(O)cc1c4c23 [Ellagic acid]
[1]; [11]
  MIC: 50 ± 2.4 µM (≈ 15.1 µg/mL)
[1]; M. smegmatis mc^2 155, MABA, 37°C, 48 h, listed as ellagic acid, read-out: MIC
  MIC: 50 µM (≈ 15.1 µg/mL)
[1]; [9]
  MIC: 25 µM (≈ 7.55 µg/mL)

## O=c1ccc2cc(O)c(O)cc2o1 [Esculetin]
[1]; [10]
  MIC: 48.2 ± 5.7 µM (≈ 8.59 µg/mL)
[2]
  increase of bacterial length: 4 fold
  maximum bacterial length: 17.85 ± 4.5 μm
[3]
  protofilament formation (TEM): did not allow the formation of network for a protofilament

## CC1=CC(=O)c2c(O)cccc2C1=O [Plumbagin]
[7]
  increase of the length of bacteria: 7 fold

## CO[C@H]1/C=C/O[C@@]2(C)Oc3c(C)c(O)c4c(O)c(c(/C=N/N5CCN(C)CC5)c(O)c4c3C2=O)NC(=O)/C(C)=C\C=C\[C@H](C)[C@H](O)[C@@H](C)[C@@H](O)[C@@H](C)[C@H](OC(C)=O)[C@@H]1C [Rifampicin, reference compound]
[1]; [9]
  MIC: 3.9 µM (≈ 3.21 µg/mL)

## CC(C)c1c(O)ccc2c1CC[C@H]1C(C)(C)CCC[C@]21C [Totarol]
[7]
  increase of the length of bacteria: 5 fold
[5]
  inhibition of the GTPase activity of the protein: 68% ± 3.1
[6]
  inhibition of the polymerization activity of the protein: 74% ± 2

## O=c1ccc2ccc(O)cc2o1 [Umbelliferone]
[1]; [10]
  MIC: 46.2 ± 3.2 µM (≈ 7.49 µg/mL)
[8]
  MIC: 58.3 µg/mL (≈ 360 µM)

## COc1cc2ccc(=O)oc2cc1O [scopoletin, reference compound]
[8]
  MIC: 42 µg/mL (≈ 219 µM)

## [H]/N=C(/N)N[C@H]1[C@H](O)[C@@H](O)[C@H](O[C@@H]2O[C@@H](C)[C@](O)(C=O)[C@H]2O[C@@H]2O[C@@H](CO)[C@H](O)[C@@H](O)[C@@H]2NC)[C@@H](N/C(N)=N\[H])[C@@H]1O [streptomycin, reference compound]
[1]; [9]
  MIC: 11.2 µM (≈ 6.5 µg/mL)
